The results in this text go back to PubChem BioAssay (NCI).

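The compound was tested at five concentrations on cells cultured in 96-well plates, with a 48-hour exposure period. At the TGI there is no net growth.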 A value given as a limit tells only on which side of the number the result lay.

Common to all, as to experiment: inhibition of tumour cell growth, NCI panel, 48 h
Assay [1] concerns A549 NSCLC.
The test system of assay [2] is HCT-116 colon.
The test system of assay [3] is MCF7 breast.
Assay [4] concerns HS 578T breast.
Assay [5] deals with M14 melanoma.
Assay [6] deals with HCC-2998 colon.
The test system of assay [7] is MDA-MB-435.
Assay [8] relates to NCI/ADR-RES ovarian.
Assay [9] has as its system SW-620 colon.
Assay [10] concerns A498 renal.
Assay [11] has as its system MALME-3M melanoma.
Assay [12] deals with COLO 205 colon.
Assay [13] relates to OVCAR-5 ovarian.
The subject of assay [14] is HCT-15 colon.
Assay [15] has as its system MOLT-4 leukemia.
For assay [16], the system named is SF-295 CNS.
Assay [17] relates to RXF 393 renal.
The test system of assay [18] is KM12 colon.
Assay [19] relates to RPMI-8226 leukemia.
Assay [20] has as its system HOP-92 NSCLC.

On to `CC(=O)NC(C)(C)C1CC=C(C)CC1` (stereo unspecified), for which the TGI in assay [1], in assay [2], in assay [3], in [4], in assay [5] and in [6] was greater than 100 µM throughout. Also, the TGI in assay [7], in assay [8], in [9], in assay [10], in assay [11] and in assay [12] was greater than 100 µM throughout. For the same compound, the TGI in assay [13], in assay [14], in assay [15], in assay [16], in [17] and in assay [18] was greater than 100 µM throughout. In assay [19], this compound showed a TGI greater than 100 µM.
For the compound `CCOC(=O)C(/C=N\C(=S)Nc1ccc(Cl)c(Cl)c1)=C(/O)c1ccccc1`, the TGI in assay [1] was greater than 100 µM; in [2], greater than 100 µM; in [3], greater than 100 µM; in assay [4] it was 10.5 µM; in [5], greater than 100 µM; in [6], 60.4 µM. Also, the TGI is 93.5 µM in [7]; greater than 100 µM in assay [8]; greater than 100 µM in assay [9]; 20.4 µM in assay [10]; greater than 100 µM in [11]; greater than 100 µM in assay [12]. In addition, the TGI in assay [13], in assay [14], in [15], in assay [16], in assay [17] and in [18] was greater than 100 µM throughout.
Consider `Cc1c(C)c2c(c(N)c1C#N)C(=O)N(Nc1ccccc1)C2=O`, for which the TGI in assay [1], in assay [2], in [3], in assay [4], in [20] and in assay [5] was greater than 100 µM each time. Besides, the TGI in assay [6], in assay [7], in assay [8], in [9], in assay [11] and in assay [12] was greater than 100 µM throughout. The TGI in [13] is greater than 100 µM; in [14] it was greater than 100 µM; in [15], greater than 100 µM; in assay [16] it was greater than 100 µM; in [17] it was 47.1 µM; in assay [18], greater than 100 µM. The compound also showed a TGI in assay [19] greater than 100 µM.
On to `OC1(c2ccccc2)CC2CCC(C1)N2CCCC1(c2ccc(F)cc2)OCCO1` (stereo unspecified), for which the TGI in [1] was greater than 100 µM; in assay [2] it was greater than 100 µM; in assay [3] it was greater than 100 µM; in [4], greater than 100 µM; in [5], 44.9 µM; in assay [7] it was greater than 100 µM. Besides, the TGI in assay [8] is 29.1 µM; in assay [9], greater than 100 µM; in [10], greater than 100 µM; in assay [11] it was greater than 100 µM; in [12] it was greater than 100 µM; in [13] it was greater than 100 µM. Further, the TGI in assay [14] is greater than 100 µM; in [15], greater than 100 µM; in [16], 10.9 µM; in assay [17] it was greater than 100 µM; in [19], greater than 100 µM.
As to `[O-][n+]1onc2c1CCC(=N\O)/C2=N/Nc1ccccc1`, the TGI in assay [1], in assay [2], in assay [3], in assay [4], in assay [5] and in [7] was greater than 100 µM throughout. In addition, the TGI in assay [8], in assay [9], in assay [10], in [11], in [12] and in assay [13] was greater than 100 µM in each case. Also, the TGI in [14], in assay [15], in [16], in assay [17], in assay [18] and in assay [19] was greater than 100 µM each time.
Consider `Cc1ccc2ccccc2c1NC1=NCCO1`, for which the TGI was greater than 100 µM in [1]; greater than 100 µM in assay [2]; greater than 100 µM in assay [3]; greater than 100 µM in assay [4]; 46.8 µM in [20]; greater than 100 µM in [5]. Moreover, the TGI in assay [6], in [7], in assay [8], in [9], in assay [11] and in assay [12] was greater than 100 µM in each case. In addition, the TGI in [13], in assay [14], in assay [15], in assay [16], in [17] and in assay [18] was greater than 100 µM in each case. The compound further returned a TGI in assay [19] greater than 100 µM.
Consider `COc1ccc(C2CC(c3ccccc3)=Nc3c(-c4ccccc4)nnn32)cc1` (stereo unspecified), for which the TGI in assay [1], in [2], in [3], in assay [4], in assay [5] and in assay [7] was greater than 100 µM in each case. The TGI in assay [8], in assay [9], in [10], in assay [12], in assay [13] and in assay [14] was greater than 100 µM in each case. Also, the TGI in assay [15] is greater than 100 µM; in assay [16] it was greater than 100 µM; in assay [18] it was greater than 100 µM; in [19], 82.6 µM.
